Earlier results on one compound are cited in patent US20130331400A1, “METHOD FOR PRODUCING INDIGO-PLANT LEAF EXTRACT” (SUNSTAR INC.,, priority 2011, published 2013).

Molecules are shown by their SMILES.

For data set [1], the system named is fungi of the genus Malassezia. The following applies: reported in PTL 1.
Data set [2] concerns type IV allergic reactions. The following applies: reported in PTL 2.
For data set [3] the following is noted: general statement in background art.

Take `O=C1c2ccccc2-n2c1nc1ccccc1c2=O` [tryptanthrin]: the “Antibacterial action against fungi of the genus Malassezia (in words)” value in data set [1] is recorded as “has an antibacterial action against fungi of the genus Malassezia”. In addition, the “Effect on type IV allergic reactions (in words)” value in data set [2] is recorded as “effect of suppressing type IV allergic reactions”. For the same compound, the “Light stability of tryptanthrin (in words)” value in data set [3] is “poor light stability”.
